Test system: rats
Test: Plasma metabolite profiling (GC-MS/LC-MS) of rats treated with aniline; biomarkers for aniline-inducible hemolytic anemia
Type: in vivo, rat
Description: A group of each 5 male and female rats was dosed once daily with aniline at 10 and 100 mg/kg body weight per gavage over 28 days. Additional groups of each 5 male and female animals served as controls. Before starting the treatment period, animals, which were 62-64 days old when supplied, were acclimatized to the housing and environmental conditions for 7 days. All animals of the animal population were kept under the same constant temperature (20-24±3° C.) and the same constant humidity (30-70%). Each animal of the animal population was kept in a separate cage. The animals of the animal population are fed ad libitum. The food to be used was be essentially free of chemical or microbial contaminants. Drinking water was also offered ad libitum. Accordingly, the water was be free of chemical and microbial contaminants as laid down in the European Drinking Water Directive 98/83/EG. The illumination period was 12 hours light followed by 12 hours darkness (12 hours light, from 6:00 to 18:00, and 12 hours darkness, from 18:00 to 6:00).
In the morning of day 7, 14, and 28, blood was taken from the retroorbital venous plexus from fasted anaesthetized animals. From each animal, 1 ml of blood was collected with EDTA as anticoagulant. The samples were be centrifuged for generation of plasma. All plasma samples were covered with a N2 atmosphere and then stored at −80° C. until analysis.
For mass spectrometry-based metabolite profiling analyses plasma samples were extracted and a polar and a non-polar fraction was obtained. For GC-MS analysis, the non-polar fraction was hydrolyzed under acidic conditions to yield the fatty acid methyl esters. Both fractions were further derivatised with a silylating agent before analysis. In LC-MS analysis, both fractions were reconstituted in appropriate solvent mixtures. HPLC was performed by gradient elution on reversed phase separation columns. For mass spectrometric detection metanomics proprietary technology was applied which allows target and high sensitivity MRM (Multiple Reaction Monitoring) profiling in parallel to a full screen analysis. […] Moreover, several hundred further analytes giving a fingerprint of the sample are included in the methods.
Following comprehensive analytical validation steps, the data for each analyte were normalized against data from pool samples. These samples were run in parallel through the whole process to account for process variability. The significance of treatment group values specific for sex, dose group and metabolite was determined by comparing means of the treated groups to the means of the respective untreated control groups using Student's t-test. Normalized treatment group values and their significance were fed into a database for further statistics and data mining processes.
The changes of the group of plasma metabolites being indicative for hemolytic anemia after treatment of rats with aniline are shown in the following table: […]

[1] = female rats, day 7, 100 mg/kg body weight/day by gavage
[2] = female rats, day 14, 100 mg/kg body weight/day by gavage
[3] = female rats, day 28, 100 mg/kg body weight/day by gavage
[4] = male and female rats, 100 mg/kg body weight/day by gavage for 28 days
[5] = male rats, day 7, 100 mg/kg body weight/day by gavage
[6] = male rats, day 14, 100 mg/kg body weight/day by gavage
[7] = male rats, day 28, 100 mg/kg body weight/day by gavage

**Q.** `Nc1ccccc1` [aniline] was tested. Which “11-desoxycortisol, fold change against controls” value (“11-desoxycortisol, fold change” below) [1] did it give?
**A.** Its value is 0.39 fold.

**Q.** What about the “18-hydroxycorticosterone, fold change against controls” value (from here on “18-hydroxycorticosterone, fold change”) [1] of the same molecule?
**A.** Its value is 0.43 fold.

**Q.** What about the “cytosine, fold change against controls” value [1] of the same molecule?
**A.** Its value is 1.81 fold.

**Q.** What about the “ribal (1,4-anhydro-2-deoxy-D-erythro-pent-1-enitol) (=MetID 407), fold change against controls” value (from here on “ribal … fold change against controls”) [1] of the same molecule?
**A.** Its value is 1.79 fold.

**Q.** And the “11-desoxycortisol, fold change” value [2]?
**A.** The value was 0.71 fold.

**Q.** And the “18-hydroxycorticosterone, fold change” value [2]?
**A.** The value was 0.71 fold.

**Q.** And the “cytosine, fold change against controls” value [2]?
**A.** Its value is 1.18 fold.

**Q.** And the “ribal … fold change against controls” value [2]?
**A.** Its value is 1.66 fold.

**Q.** What about the “11-desoxycortisol, fold change” value [3] of the same molecule?
**A.** Its value is 0.41 fold.

**Q.** And the “18-hydroxycorticosterone, fold change” value [3]?
**A.** The value was 0.47 fold.

**Q.** And the “cytosine, fold change against controls” value [3]?
**A.** Its value is 1.38 fold.

**Q.** And the “ribal … fold change against controls” value [3]?
**A.** Its value is 1.59 fold.

**Q.** What about the “Regulation of 11-desoxycortisol” value [4] of the same molecule?
**A.** The value was “down”.

**Q.** And the “Regulation of 18-hydroxycorticosterone” value [4]?
**A.** Its value is “down”.

**Q.** What about the Regulation of cytosine [4] of the same molecule?
**A.** Its Regulation of cytosine is “up”.

**Q.** And the “Regulation of ribal (1,4-anhydro-2-deoxy-D-erythro-pent-1-enitol) (=MetID 407)” value [4]?
**A.** Its value is “up”.

**Q.** What about the “11-desoxycortisol, fold change” value [5] of the same molecule?
**A.** The value was 0.47 fold.

**Q.** What about the “18-hydroxycorticosterone, fold change” value [5] of the same molecule?
**A.** Its value is 0.34 fold.

**Q.** What about the “cytosine, fold change against controls” value [5] of the same molecule?
**A.** Its value is 1.50 fold.

**Q.** And the “ribal … fold change against controls” value [5]?
**A.** The value was 1.68 fold.

**Q.** And the “11-desoxycortisol, fold change” value [6]?
**A.** Its value is 0.48 fold.

**Q.** And the “18-hydroxycorticosterone, fold change” value [6]?
**A.** The value was 0.33 fold.

**Q.** And the “cytosine, fold change against controls” value [6]?
**A.** Its value is 1.17 fold.

**Q.** What about the “ribal … fold change against controls” value [6] of the same molecule?
**A.** Its value is 1.42 fold.

**Q.** And the “11-desoxycortisol, fold change” value [7]?
**A.** Its value is 0.27 fold.

**Q.** And the “18-hydroxycorticosterone, fold change” value [7]?
**A.** Its value is 0.18 fold.

**Q.** And the “cytosine, fold change against controls” value [7]?
**A.** Its value is 1.71 fold.

**Q.** What about the “ribal … fold change against controls” value [7] of the same molecule?
**A.** Its value is 1.82 fold.

— patent publication US8563253B2, “Means and method for diagnosing hemolytic anemia” (priority 2006, dated 2013)
